Measurements reported in the CheMixHub viscosity set.
± gives the uncertainty stated by the source.

Assay: xn = mol fraction of the nth substance listed

CCOC(C)(C)C + COCCO
viscosity [mPa·s], 101 kPa
Details	293.15 K	298.15 K	303.15 K
x1 = 0.0501	1.598 ± 0.02	1.452 ± 0.019	1.327 ± 0.017
x1 = 0.1	1.493 ± 0.019	1.361 ± 0.017	1.246 ± 0.016
x1 = 0.1508	1.386 ± 0.018	1.267 ± 0.016	1.164 ± 0.015
x1 = 0.2	1.291 ± 0.016	1.183 ± 0.015	1.089 ± 0.014
x1 = 0.2512	1.198 ± 0.015	1.1 ± 0.014	1.015 ± 0.013
x1 = 0.299	1.118 ± 0.014	1.029 ± 0.013	0.951 ± 0.012
x1 = 0.3489	1.041 ± 0.013	0.961 ± 0.012	0.89 ± 0.012
x1 = 0.4	0.971 ± 0.012	0.898 ± 0.012	0.834 ± 0.011
x1 = 0.4503	0.909 ± 0.012	0.842 ± 0.011	0.784 ± 0.01
x1 = 0.499	0.854 ± 0.011	0.793 ± 0.01	0.74 ± 0.01
x1 = 0.55	0.803 ± 0.01	0.748 ± 0.01	0.7 ± 0.009
x1 = 0.61	0.75 ± 0.01	0.7 ± 0.009	0.657 ± 0.009
x1 = 0.6599	0.711 ± 0.009	0.665 ± 0.009	0.625 ± 0.008
x1 = 0.7	0.682 ± 0.009	0.639 ± 0.009	0.602 ± 0.008
x1 = 0.7511	0.649 ± 0.009	0.61 ± 0.008	0.575 ± 0.008
x1 = 0.8	0.621 ± 0.008	0.584 ± 0.008	0.552 ± 0.008
x1 = 0.8489	0.595 ± 0.008	0.561 ± 0.008	0.532 ± 0.007
x1 = 0.9	0.571 ± 0.008	0.54 ± 0.007	0.512 ± 0.007
x1 = 0.949	0.55 ± 0.008	0.521 ± 0.007	0.495 ± 0.007

Cc1cccc([N+](=O)[O-])c1 + Cc1cccc(C)c1
308.15 K, 101.33 kPa
Details	viscosity [mPa·s]
x2 = 0.1017	1.33 ± 0.008
x2 = 0.2062	1.133 ± 0.007
x2 = 0.3032	1.014 ± 0.007
x2 = 0.4055	0.926 ± 0.006
x2 = 0.5001	0.861 ± 0.006
x2 = 0.6028	0.785 ± 0.005
x2 = 0.6999	0.72 ± 0.005
x2 = 0.8043	0.653 ± 0.004
x2 = 0.9007	0.59 ± 0.004

CC1CCCCC1 + CCCCCO
303.15 K, 101.33 kPa
Details	viscosity [mPa·s]
x1 = 0.0947	2.283 ± 0.021
x1 = 0.2614	1.737 ± 0.016
x1 = 0.42	1.289 ± 0.012
x1 = 0.5783	0.968 ± 0.009
x1 = 0.7422	0.777 ± 0.007
x1 = 0.9027	0.663 ± 0.006
x2 = 0.1011	0.7025 ± 0.0092
x2 = 0.2073	0.7951 ± 0.01
x2 = 0.3017	0.8911 ± 0.011
x2 = 0.4214	1.039 ± 0.013
x2 = 0.4998	1.16 ± 0.014
x2 = 0.5988	1.325 ± 0.016
x2 = 0.7007	1.535 ± 0.018
x2 = 0.8084	1.852 ± 0.022
x2 = 0.9144	2.305 ± 0.027

CCOC(=O)c1ccccc1 + CCCCCC
101 kPa
Details	viscosity [mPa·s]
298.15 K, x2 = 0.0271	1.845 ± 0.058
298.15 K, x2 = 0.1115	1.528 ± 0.048
298.15 K, x2 = 0.1588	1.375 ± 0.043
298.15 K, x2 = 0.2058	1.242 ± 0.039
298.15 K, x2 = 0.3029	1.008 ± 0.032
298.15 K, x2 = 0.3991	0.828 ± 0.026
298.15 K, x2 = 0.4898	0.688 ± 0.022
298.15 K, x2 = 0.5921	0.57 ± 0.018
298.15 K, x2 = 0.6377	0.527 ± 0.017
298.15 K, x2 = 0.6782	0.491 ± 0.016
298.15 K, x2 = 0.7316	0.456 ± 0.015
298.15 K, x2 = 0.773	0.426 ± 0.014
298.15 K, x2 = 0.8227	0.394 ± 0.013
298.15 K, x2 = 0.8654	0.371 ± 0.012
298.15 K, x2 = 0.9101	0.354 ± 0.011
298.15 K, x2 = 0.9517	0.341 ± 0.011
303.15 K, x1 = 0.0927	0.329 ± 0.007
303.15 K, x1 = 0.1853	0.38 ± 0.008
303.15 K, x1 = 0.2811	0.448 ± 0.01
303.15 K, x1 = 0.3781	0.531 ± 0.011
303.15 K, x1 = 0.4761	0.634 ± 0.013
303.15 K, x1 = 0.5765	0.764 ± 0.016
303.15 K, x1 = 0.6794	0.93 ± 0.019
303.15 K, x1 = 0.7852	1.147 ± 0.024
303.15 K, x1 = 0.8902	1.41 ± 0.029
308.15 K, x1 = 0.0927	0.315 ± 0.007
308.15 K, x1 = 0.1853	0.366 ± 0.008
308.15 K, x1 = 0.2811	0.429 ± 0.009
308.15 K, x1 = 0.3781	0.508 ± 0.011
308.15 K, x1 = 0.4761	0.603 ± 0.013
308.15 K, x1 = 0.5765	0.72 ± 0.015
308.15 K, x1 = 0.6794	0.877 ± 0.018
308.15 K, x1 = 0.7852	1.065 ± 0.022
308.15 K, x1 = 0.8902	1.303 ± 0.027
308.15 K, x2 = 0.0828	1.413 ± 0.044
308.15 K, x2 = 0.1328	1.29 ± 0.04
308.15 K, x2 = 0.171	1.201 ± 0.038
308.15 K, x2 = 0.2301	1.074 ± 0.034
308.15 K, x2 = 0.2802	0.973 ± 0.031
308.15 K, x2 = 0.3274	0.887 ± 0.028
308.15 K, x2 = 0.3722	0.812 ± 0.026
308.15 K, x2 = 0.4224	0.741 ± 0.023
308.15 K, x2 = 0.4708	0.677 ± 0.021
308.15 K, x2 = 0.5165	0.624 ± 0.02
308.15 K, x2 = 0.5609	0.576 ± 0.018
308.15 K, x2 = 0.6066	0.533 ± 0.017
308.15 K, x2 = 0.6587	0.489 ± 0.016
308.15 K, x2 = 0.7033	0.457 ± 0.015
308.15 K, x2 = 0.7489	0.426 ± 0.014
308.15 K, x2 = 0.7953	0.397 ± 0.013
308.15 K, x2 = 0.8419	0.372 ± 0.012
308.15 K, x2 = 0.8794	0.356 ± 0.011
308.15 K, x2 = 0.9354	0.331 ± 0.011
313.15 K, x1 = 0.0927	0.295 ± 0.006
313.15 K, x1 = 0.1853	0.346 ± 0.007
313.15 K, x1 = 0.2811	0.406 ± 0.009
313.15 K, x1 = 0.3781	0.476 ± 0.01
313.15 K, x1 = 0.4761	0.562 ± 0.012
313.15 K, x1 = 0.5765	0.673 ± 0.014
313.15 K, x1 = 0.6794	0.815 ± 0.017
313.15 K, x1 = 0.7852	0.99 ± 0.021
313.15 K, x1 = 0.8902	1.2 ± 0.025
318.15 K, x2 = 0.0471	1.244 ± 0.039
318.15 K, x2 = 0.1005	1.133 ± 0.035
318.15 K, x2 = 0.149	1.036 ± 0.032
318.15 K, x2 = 0.2038	0.939 ± 0.029
318.15 K, x2 = 0.252	0.861 ± 0.027
318.15 K, x2 = 0.3057	0.781 ± 0.025
318.15 K, x2 = 0.352	0.718 ± 0.023
318.15 K, x2 = 0.4057	0.652 ± 0.021
318.15 K, x2 = 0.4516	0.602 ± 0.019
318.15 K, x2 = 0.5027	0.55 ± 0.017
318.15 K, x2 = 0.5475	0.51 ± 0.016
318.15 K, x2 = 0.5991	0.47 ± 0.015
318.15 K, x2 = 0.6439	0.439 ± 0.014
318.15 K, x2 = 0.6933	0.41 ± 0.013
318.15 K, x2 = 0.7382	0.387 ± 0.012
318.15 K, x2 = 0.7869	0.364 ± 0.012
318.15 K, x2 = 0.8296	0.346 ± 0.011
318.15 K, x2 = 0.878	0.327 ± 0.011

CCCCCl + CCCCCCCCCC
298 K, 101.3 kPa
Details	viscosity [mPa·s]
x2 = 0.1032	0.4681 ± 0.013
x2 = 0.202	0.5006 ± 0.013
x2 = 0.3087	0.5437 ± 0.014
x2 = 0.3992	0.5768 ± 0.015
x2 = 0.5065	0.6297 ± 0.017
x2 = 0.5992	0.6636 ± 0.017
x2 = 0.6974	0.7109 ± 0.019
x2 = 0.7967	0.7607 ± 0.02
x2 = 0.8968	0.811 ± 0.021
